# According to patent US6653529B2, “Use of the maize X112 mutant ahas 2 gene and imidazolinone herbicides for selection of transgenic monocots, maize, rice and wheat plants resistant to the imidazolinone herbicides” (BASF Aktiengesellschaft, priority 2000, dated 2003):
# Key:
# transgenic rice Line 26 = test: Response of rice plants to various herbicides, seed set in greenhouse; type: in vivo; conditions: post-emergence, 1× g ai/ha: PURSUIT 62.5, CADRE 32, ARSENAL 24, RAPTOR 32, SCEPTER 125, ACCENT 35, CLASSIC 5, AC322,140 20, LONDAX 68
# Procedure, shortened: (§1)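 Greenhouse flats, 10 plants per cell; 9 herbicides (imidazolinones, rice herbicides, nicosulfuron, chlorimuron-ethyl) sprayed pre- or post-emergence at 1, 2, 4 and 6× rates, three replications. Fresh weight taken 32 days (pre) or 29 days (post, 5 plants/cell) after spraying; remaining plants grown to maturity for percentage filled-seed set.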
# [1] = test system: untransformed Nt rice plants; test: as above; type: in vivo; conditions: post-emergence, 1× g ai/ha: PURSUIT 62.5, CADRE 32, ARSENAL 24, RAPTOR 32, SCEPTER 125, ACCENT 35, CLASSIC 5, AC322,140 20, LONDAX 68
# Procedure, shortened: as §1
# transgenic rice Line 29 = test: as above; type: in vivo; conditions: post-emergence, 1× g ai/ha: PURSUIT 62.5, CADRE 32, ARSENAL 24, RAPTOR 32, SCEPTER 125, ACCENT 35, CLASSIC 5, AC322,140 20, LONDAX 68
# Procedure, shortened: as §1
# [2] = test system: AHAS (acetohydroxyacid synthase) in extracts of Nortai, Line 26 and Line 29; test: In vitro AHAS activity assay; type: biochemical, rice; conditions: a significant portion of the enzyme activity; compared with normal enzyme from Nortai; FIG. 2
# Protocol: Previously published procedures were used for the extraction and in vitro assay for AHAS activity (Singh et al. 1988). Lower portions of the shoots were used as the source of plant tissue for the assay. The desalted crude extracts were used for the in vitro enzyme assays. Acetolactate produced by the enzyme was converted to acetoin, which was measured by the Westerfield assay system.
# In vitro AHAS assays were performed to understand the basis of herbicide tolerance in the transgenic plants. Previously published procedure was used for the extraction and in vitro assay for AHAS activity (Singh et al. 1988). The lower portions of the shoots were used as the source of plant tissue for the assay. The desalted crude extracts were used for the in vitro enzyme assays. Acetolactate produced by the enzyme was converted to acetoin, which was measured by the Westerfield assay system (Westerfield 1945). The specific activity of AHAS was about 30% higher in Line 26 (67 nmoles/mg protein/h) and Line 29 (64 nmoles/mg protein/h) compared to the activity in Nortai (Nt) (50 nmoles/mg protein/h).
# [3] = test system: transgenic rice Line 26 (maize XI12 ahas2 gene); test: Greenhouse spray test of rice with PURSUIT imazethapyr (pre- and post-emergence); type: in vivo
# [4] = test system: non-transformed Ciccio and Colosseo wheat plants; test: Greenhouse spray test of wheat with RAPTOR imazamox; type: in vivo
# Excerpt: Sow seed to 3×5-cell flats at about 10 seed per cell. Grow the plants for about two weeks. On the day of spraying, water plants well and let excess water drip out. Spray plants on a belt-sprayer with the imidazolinone herbicides at desired rates. […] Resume regular water schedule three days after spraying. Closely observe the plants for the next two to four weeks. Symptoms of herbicide injury will be visible two weeks after spraying and susceptible plants will die four to six weeks later. We usually measure plant height and score the plant morphology with a 0 to 10 rating with 0 for dead plants and 10 for healthy plants with no or minimum injury.
# We also analyzed T2 progeny plants from one of the best lines of 0407-1-10. T2 seeds were planted at 10 seeds per pot and two pots per line were sprayed at 0, 10, 20, 30, 40 and 50 g/ha RAPTOR® imazamox. Most plants did show an increase in resistance over non-transformed control (FIG. 6B).
# [5] = post-emergence, Rate 63 (g ai/ha)
# [6] = post-emergence, Rate 125 (g ai/ha)
# [7] = post-emergence, Rate 250 (g ai/ha)
structure (smiles),measurement,setting,value
"CC(C)C1(C)N=C(c2ncccc2C(=O)O)NC1=O (stereo not shown) [ARSENAL ®, imazapyr]",% seed-set,transgenic rice Line 26; 1× rate,85%
same,No. filled seeds/3 panicles,transgenic rice Line 26; 1× rate,156
same,Total No. of kernels/3 panicles,transgenic rice Line 26; 1× rate,183
same,% seed-set,transgenic rice Line 26; 2× rate,77%
same,No. filled seeds/3 panicles,transgenic rice Line 26; 2× rate,132
same,Total No. of kernels/3 panicles,transgenic rice Line 26; 2× rate,170
same,% seed-set,transgenic rice Line 26; 4× rate,6%
same,No. filled seeds/3 panicles,transgenic rice Line 26; 4× rate,10
same,Total No. of kernels/3 panicles,transgenic rice Line 26; 4× rate,170
same,% seed-set,transgenic rice Line 26; 6× rate,1%
same,No. filled seeds/3 panicles,transgenic rice Line 26; 6× rate,2
same,Total No. of kernels/3 panicles,transgenic rice Line 26; 6× rate,178
same,% seed-set,[1]; 1× rate,0%
same,No. filled seeds/3 panicles,[1]; 1× rate,0
same,Total No. of kernels/3 panicles,[1]; 1× rate,0
same,% seed-set,[1]; 2× rate,0%
same,No. filled seeds/3 panicles,[1]; 2× rate,0
same,Total No. of kernels/3 panicles,[1]; 2× rate,0
same,% seed-set,[1]; 4× rate,0%
same,No. filled seeds/3 panicles,[1]; 4× rate,0
same,Total No. of kernels/3 panicles,[1]; 4× rate,0
same,% seed-set,[1]; 6× rate,0%
same,No. filled seeds/3 panicles,[1]; 6× rate,0
same,Total No. of kernels/3 panicles,[1]; 6× rate,0
same,% seed-set,transgenic rice Line 29; 1× rate,90%
same,No. filled seeds/3 panicles,transgenic rice Line 29; 1× rate,122
same,Total No. of kernels/3 panicles,transgenic rice Line 29; 1× rate,137
same,% seed-set,transgenic rice Line 29; 2× rate,81%
same,No. filled seeds/3 panicles,transgenic rice Line 29; 2× rate,116
same,Total No. of kernels/3 panicles,transgenic rice Line 29; 2× rate,144
same,% seed-set,transgenic rice Line 29; 4× rate,26%
same,No. filled seeds/3 panicles,transgenic rice Line 29; 4× rate,41
same,Total No. of kernels/3 panicles,transgenic rice Line 29; 4× rate,179
same,% seed-set,transgenic rice Line 29; 6× rate,19%
same,No. filled seeds/3 panicles,transgenic rice Line 29; 6× rate,27
same,Total No. of kernels/3 panicles,transgenic rice Line 29; 6× rate,140
same,inhibition of AHAS activity from tolerant Line 26 and Line 29,[2],insensitive to inhibition
"CCc1cnc(C2=NC(C)(C(C)C)C(=O)N2)c(C(=O)O)c1 (stereo not shown) [PURSUIT ®, imazethapyr]",% seed-set,transgenic rice Line 26; 1× rate,91%
same,No. filled seeds/3 panicles,transgenic rice Line 26; 1× rate,143
same,Total No. of kernels/3 panicles,transgenic rice Line 26; 1× rate,157
same,% seed-set,transgenic rice Line 26; 2× rate,86%
same,No. filled seeds/3 panicles,transgenic rice Line 26; 2× rate,133
same,Total No. of kernels/3 panicles,transgenic rice Line 26; 2× rate,155
same,% seed-set,transgenic rice Line 26; 4× rate,89%
same,No. filled seeds/3 panicles,transgenic rice Line 26; 4× rate,152
same,Total No. of kernels/3 panicles,transgenic rice Line 26; 4× rate,172
same,% seed-set,transgenic rice Line 26; 6× rate,77%
same,No. filled seeds/3 panicles,transgenic rice Line 26; 6× rate,107
same,Total No. of kernels/3 panicles,transgenic rice Line 26; 6× rate,138
same,% seed-set,[1]; 1× rate,35%
same,No. filled seeds/3 panicles,[1]; 1× rate,38
same,Total No. of kernels/3 panicles,[1]; 1× rate,47
same,% seed-set,[1]; 2× rate,0%
same,No. filled seeds/3 panicles,[1]; 2× rate,0
same,Total No. of kernels/3 panicles,[1]; 2× rate,0
same,% seed-set,[1]; 4× rate,10%
same,No. filled seeds/3 panicles,[1]; 4× rate,19
same,Total No. of kernels/3 panicles,[1]; 4× rate,21
same,% seed-set,[1]; 6× rate,0%
same,No. filled seeds/3 panicles,[1]; 6× rate,0
same,Total No. of kernels/3 panicles,[1]; 6× rate,0
same,% seed-set,transgenic rice Line 29; 1× rate,85%
same,No. filled seeds/3 panicles,transgenic rice Line 29; 1× rate,125
same,Total No. of kernels/3 panicles,transgenic rice Line 29; 1× rate,146
same,% seed-set,transgenic rice Line 29; 2× rate,88%
same,No. filled seeds/3 panicles,transgenic rice Line 29; 2× rate,136
same,Total No. of kernels/3 panicles,transgenic rice Line 29; 2× rate,155
same,% seed-set,transgenic rice Line 29; 4× rate,88%
same,No. filled seeds/3 panicles,transgenic rice Line 29; 4× rate,138
same,Total No. of kernels/3 panicles,transgenic rice Line 29; 4× rate,156
same,% seed-set,transgenic rice Line 29; 6× rate,87%
same,No. filled seeds/3 panicles,transgenic rice Line 29; 6× rate,141
same,Total No. of kernels/3 panicles,transgenic rice Line 29; 6× rate,160
same,inhibition of AHAS activity from tolerant Line 26 and Line 29,[2],insensitive to inhibition
same,No. panicles/plant Mean,[3]; [5],25.3
same,No. tillers/plant Mean,[3]; [5],27.1
same,Plant height Mean,[3]; [5],110.1 cm
same,Yield % 0×,[3]; [5],98 % 0×
same,Yield Mean,[3]; [5],206.7 g/5 plants
same,No. panicles/plant Mean,[3]; [6],22.8
same,No. tillers/plant Mean,[3]; [6],25.6
same,Plant height Mean,[3]; [6],108.1 cm
same,Yield % 0×,[3]; [6],98 % 0×
same,Yield Mean,[3]; [6],206.0 g/5 plants
same,No. panicles/plant Mean,[3]; [7],21.7
same,No. tillers/plant Mean,[3]; [7],25.4
same,Plant height Mean,[3]; [7],110.3 cm
same,Yield % 0×,[3]; [7],96 % 0×
same,Yield Mean,[3]; [7],202.7 g/5 plants
same,No. panicles/plant Mean,"[3]; pre-emergence, 63 g/ha",13.2
same,No. tillers/plant Mean,"[3]; pre-emergence, 63 g/ha",14.3
same,Plant height Mean,"[3]; pre-emergence, 63 g/ha",92.2 cm
same,Yield % 0×,"[3]; pre-emergence, 63 g/ha",101 % 0×
same,Yield Mean,"[3]; pre-emergence, 63 g/ha",155.3 g/5 plants
same,No. panicles/plant Mean,"[3]; pre-emergence, 125 g/ha",14.4
same,No. tillers/plant Mean,"[3]; pre-emergence, 125 g/ha",15.3
same,Plant height Mean,"[3]; pre-emergence, 125 g/ha",89.7 cm
same,Yield % 0×,"[3]; pre-emergence, 125 g/ha",111 % 0×
same,Yield Mean,"[3]; pre-emergence, 125 g/ha",170.0 g/5 plants
same,No. panicles/plant Mean,"[3]; pre-emergence, 250 g/ha",15.7
same,No. tillers/plant Mean,"[3]; pre-emergence, 250 g/ha",13.3
same,Plant height Mean,"[3]; pre-emergence, 250 g/ha",88.5 cm
same,Yield % 0×,"[3]; pre-emergence, 250 g/ha",109 % 0×
same,Yield Mean,"[3]; pre-emergence, 250 g/ha",167.0 g/5 plants
"COCc1cnc(C2=NC(C)(C(C)C)C(=O)N2)c(C(=O)O)c1 (stereo not shown) [RAPTOR ®, imazamox]","plant heights of Ciccio and Colosseo reduced, less than those of transformed plants",[4]; 10 g/ha,50%
same,fate of non-transformed Ciccio,[4]; 50 g/ha,caused death
same,% seed-set,transgenic rice Line 26; 1× rate,87%
same,No. filled seeds/3 panicles,transgenic rice Line 26; 1× rate,156
same,Total No. of kernels/3 panicles,transgenic rice Line 26; 1× rate,180
same,% seed-set,transgenic rice Line 26; 2× rate,89%
same,No. filled seeds/3 panicles,transgenic rice Line 26; 2× rate,172
same,Total No. of kernels/3 panicles,transgenic rice Line 26; 2× rate,193
same,% seed-set,transgenic rice Line 26; 4× rate,91%
same,No. filled seeds/3 panicles,transgenic rice Line 26; 4× rate,166
same,Total No. of kernels/3 panicles,transgenic rice Line 26; 4× rate,183
same,% seed-set,transgenic rice Line 26; 6× rate,77%
same,No. filled seeds/3 panicles,transgenic rice Line 26; 6× rate,136
same,Total No. of kernels/3 panicles,transgenic rice Line 26; 6× rate,167
same,% seed-set,[1]; 1× rate,0%
same,No. filled seeds/3 panicles,[1]; 1× rate,0
same,Total No. of kernels/3 panicles,[1]; 1× rate,0
same,% seed-set,[1]; 2× rate,0%
same,No. filled seeds/3 panicles,[1]; 2× rate,0
same,Total No. of kernels/3 panicles,[1]; 2× rate,0
same,% seed-set,[1]; 4× rate,0%
same,No. filled seeds/3 panicles,[1]; 4× rate,0
same,Total No. of kernels/3 panicles,[1]; 4× rate,0
same,% seed-set,[1]; 6× rate,0%
same,No. filled seeds/3 panicles,[1]; 6× rate,0
same,Total No. of kernels/3 panicles,[1]; 6× rate,0
same,% seed-set,transgenic rice Line 29; 1× rate,89%
same,No. filled seeds/3 panicles,transgenic rice Line 29; 1× rate,161
same,Total No. of kernels/3 panicles,transgenic rice Line 29; 1× rate,180
same,% seed-set,transgenic rice Line 29; 2× rate,80%
same,No. filled seeds/3 panicles,transgenic rice Line 29; 2× rate,137
same,Total No. of kernels/3 panicles,transgenic rice Line 29; 2× rate,171
same,% seed-set,transgenic rice Line 29; 4× rate,91%
same,No. filled seeds/3 panicles,transgenic rice Line 29; 4× rate,152
same,Total No. of kernels/3 panicles,transgenic rice Line 29; 4× rate,167
same,% seed-set,transgenic rice Line 29; 6× rate,80%
same,No. filled seeds/3 panicles,transgenic rice Line 29; 6× rate,125
same,Total No. of kernels/3 panicles,transgenic rice Line 29; 6× rate,149
